Data on 38 sequences can be found in the OligoGym collection.

Bases are written 5' to 3'; sugars and linkages follow in the same order, as letters with counts (s phosphorothioate, o phosphodiester; PS: all linkages phosphorothioate). The collection does not say whether C is 5-methylated. l = locked nucleic acid (LNA); d = 2'-deoxy (DNA)

In this series the target is Tau. Description: rat primary cortical neurons, FLIPR, 25 uM ASO.
As to “GCCACCTCCTGGTTTATGAT (sugars l3 d14 l3, PS)”, the calcium oscillation score is 31.6 % of control.
With “CCCGTCTTTGCTTTTACTGA (sugars l3 d14 l3, PS)” the figure was 0 % of control; with “CCTCTAGTTTTACCTAA (sugars l2 d11 l4, PS)”, 72.9 % of control; with “ATTTCAGAGCAAAGTGACCC (sugars l3 d14 l3, PS)”, 74.5 % of control.
Consider “TCCATTTTCACTGTTCA (sugars l3 d12 l2, PS)”, for which the calcium oscillation score was 87.7 % of control.
For AACTGGTTAGCCCTAA (sugars l3 d10 l3, PS), the calcium oscillation score was 31.3 % of control.
As for GGCCACCTCCTGGTTT (sugars l3 d10 l3, PS), the figure is 39.3 % of control.
As for “TCCCCCAAAATATCTCAA (sugars l3 d13 l2, PS)”, the figure is 53.9 % of control; as for “TCTTCCTTTGTAATTCCT (sugars l3 d13 l2, PS)”, 57.9 % of control.
As for “CTCCAATTTTAAACTTAA (sugars l4 d10 l4, PS)”, the figure is 69 % of control.
For the sequence CTTACTGATCATAATC (sugars l4 d8 l4, PS), the calcium oscillation score was 56.4 % of control.
As to TACTATCCACTTGTTA (sugars l3 d11 l2, PS), the calcium oscillation score is 61.9 % of control.
As to CCCACCAAAGACTTCA (sugars l2 d11 l3, PS), the calcium oscillation score is 58.3 % of control.
As for “CAATTCTCAGCACACCA (sugars l4 d11 l2, PS)”, the figure is 22.5 % of control.
With “ATACAATAAATACCATATTC (sugars l3 d14 l3, PS)” the figure was 81 % of control.
With “ATTAATTATCTGCACCT (sugars l4 d10 l3, PS)” the figure was 24.7 % of control; with “TATTTCCAAATTCACTTTTA (sugars l5 d11 l4, PS)”, 121 % of control; with “CCCCACCCAAACTCCAAG (sugars l1 d15 l2, PS)”, 46.2 % of control.
On to “CCTCCACCCTTACACAT (sugars l2 d13 l2, PS)”, for which the calcium oscillation score is 55.6 % of control.
As for “CGACTTATCTATCCATC (sugars l4 d10 l3, PS)”, the figure is 50.5 % of control; as for “CTTTCCTAATTCCCAAATTC (sugars l3 d15 l2, PS)”, 60.9 % of control.
“CACTTTCCTAATTCCCAAAT (sugars l2 d16 l2, PS)”: the calcium oscillation score is 62.1 % of control.
As for “TATTTCCAAATTCACTTTTA (sugars lldlldddddddddldldll, PS)”, the figure is 110 % of control; as for “ACCCCACATTTGCAAACC (sugars l2 d13 l3, PS)”, 46.2 % of control.
As for “CACCTTTTTCCATCTTACTA (sugars l2 d16 l2, PS)”, the figure is 67.5 % of control.
As for “CAGACCATCAATTTCCCT (sugars l2 d14 l2, PS)”, the figure is 72.5 % of control; as for TTGAAGTCCCGAGCC (sugars l3 d9 l3, PS), 0 % of control; as for “ACCCTTAGACATAACAC (sugars l3 d10 l4, PS)”, 59.7 % of control.
For “ACTAACTCTAAGTAGACCCT (sugars l3 d14 l3, PS)”, the calcium oscillation score was 40.3 % of control.
As for TGGATATAGTTAAGGC (sugars l3 d10 l3, PS), the figure is 90.5 % of control; as for “ATTTCCAAATTCACTTTTAC (sugars l2 d16 l2, PS)”, ≥ 200 % of control.
Turning to AATATTACACCATCCAA (sugars l4 d9 l4, PS), the calcium oscillation score was 95.7 % of control.
As for GTTGGATCAGAGGGTC (sugars l3 d10 l3, PS), the figure is 22.2 % of control; as for CACTCTAACATCTTAG (sugars l4 d8 l4, PS), 77.6 % of control; as for “TCCTCTCCTTTAAGAAA (sugars l3 d12 l2, PS)”, 79.1 % of control.
With “CTCAAAAATCAACGCCT (sugars l3 d10 l4, PS)” the figure was 57 % of control; with “ACCCATCCCACAAAGAACAG (sugars l3 d14 l3, PS)”, 34.2 % of control; with “CACCACTTTAATCTGCCT (sugars l2 d14 l2, PS)”, 41.1 % of control.
